# Source: patent publication US6468969B1, “Inhibition of HIV-1 replication using d-amino acid peptides” (priority 1997, dated 2002)
# Biological target: proteinase K (Parengyodontium album, UniProt P06873)
# Test: Proteinase K digestion of peptide-TAR RNA photocrosslink products
# Details: very vigorous proteinase K digestion
# Experimental: For photochemical reactions, RNA duplex was prepared by hybridizing two strands ^24. Strand 1 of the duplex was 5′-end labeled with ^32P. Preformed RNA duplexes(0.02 μM) in the absence or presence of the peptide (0.1 μM) were irradiated ([…]) and analyzed by denaturing gels as described in Wang et al., Biochemistry 35, 6491-6499 (1996).
# Chain of proteinase K (P06873 106-384): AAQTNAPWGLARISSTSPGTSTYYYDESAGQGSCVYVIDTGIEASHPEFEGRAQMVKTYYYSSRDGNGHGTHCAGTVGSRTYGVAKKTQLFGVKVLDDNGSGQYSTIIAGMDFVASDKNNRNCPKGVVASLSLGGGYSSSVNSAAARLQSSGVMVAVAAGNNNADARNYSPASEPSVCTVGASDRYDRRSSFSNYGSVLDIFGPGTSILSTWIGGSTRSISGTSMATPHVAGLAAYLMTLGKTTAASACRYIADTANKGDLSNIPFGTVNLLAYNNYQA
smiles,measurement,value
"CC[C@@H](C)[C@@H](NC(=O)CNC(=O)[C@@H](CC(C)C)NC(=O)[C@@H](C)NC(=O)[C@@H](CCCCN)NC(=O)[C@H](NC(=O)[C@H](NC(=O)[C@@H](Cc1ccccc1)NC(=O)[C@H](N)CS)[C@H](C)O)[C@H](C)O)C(=O)N[C@H](CO)C(=O)N[C@H](Cc1ccc(O)cc1)C(=O)NCC(=O)N[C@H](CCCNC(=N)N)C(=O)N[C@H](CCCCN)C(=O)N[C@H](CCCCN)C(=O)N[C@H](CCCNC(=N)N)C(=O)N[C@H](CCCNC(=N)N)C(=O)N[C@H](CCC(N)=O)C(=O)N[C@H](CCCNC(=N)N)C(=O)N[C@H](CCCNC(=N)N)C(=O)N[C@H](CCCNC(=N)N)C(=O)N1CCC[C@@H]1C(=O)N1CCC[C@@H]1C(=O)N[C@H](CCC(N)=O)C(=O)NCC(=O)N[C@H](CO)C(=O)N[C@H](CCC(N)=O)C(=O)N[C@@H](C(=O)N[C@H](Cc1c[nH]cn1)C(=O)N[C@H](CCC(N)=O)C(=O)N[C@@H](C(=O)N[C@H](CO)C(=O)N[C@H](CC(C)C)C(=O)N[C@H](CO)C(=O)N[C@H](CCCCN)C(=O)N[C@H](CCC(N)=O)C(=O)O)C(C)C)[C@H](C)O [D-Tat (37-72) peptide, D-Cys-D-Phe-D-Thr-D-Thr-D-Lys-D-Ala-D-Leu-D-Gly-D-Ile-D-Ser-D-Tyr-D-Gly-D-Arg-D-Lys-D-Lys-D-Arg-D-Arg-D-Gln-D-Arg-D-Arg-D-Arg-D-Pro-D-Pro-D-Gln-D-Gly-D-Ser-D-Gln-D-Thr-D-His-D-Gln-D-Val-D-Ser-D-Leu-D-Ser-D-Lys-D-Gln]",protease stability of peptide-RNA crosslink products,completely stable
